{
  "source": "patent US7531312B2",
  "about": "“Simplified biological evaluation method of natural and artificial chemicals by using DNA injury index and apparatus therefor” (TAS Project Co., Ltd., priority 2000, dated 2009)",
  "key": {"2′-deoxyguanosine (dG) [1]": {"test_system": "2′-deoxyguanosine (dG)", "test": "8OHdG produced from dG with test substance and coexisting bisphenol A, standing or UV (Example 9)", "assay_type": "biochemical", "protocol": "170 μl portions of ultrapure water and predetermined concentrations of vitamin C (VC), vitamin E (VE), and glucose (Glu) as test substance were added to each well of two […] plastic plates and, as additional solution, 20 μl of ultrapure water or predetermined concentration of bisphenol A (BPA) were injected into each well."}, "2′-deoxyguanosine (dG) [2]": {"test_system": "2′-deoxyguanosine (dG)", "test": "8OHdG produced from added dG, standing at room temperature or UV irradiation (Examples 1-7);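 note: Cell-free test: dG in test solution, held at room temperature or exposed to 254 nm UV, then 8OHdG quantified by HPLC with electrochemical detection, compared against dG in ultrapure water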", "conditions": "for evaluation in words: oxidation induction or antioxidant ability toward dG: conclusions of Examples 2-7", "quoted_text": "Separately, the amount of 8OHdG after an ultrapure water solution of dG is left to stand under the same conditions as above for a predetermined time is measured (this value is defined as B). If A is greater than B, the test substance is evaluated to have oxidation induction ability and conversely if A is smaller than B, the test substance is evaluated to have antioxidant ability. In either case, it is judged that the greater the difference is, the greater degree of oxidation induction ability or antioxidant capability the test substance has.\nThen, 20 μl of 200 μg/ml dG (dissolved in ultrapure water) was added to each well and one of the plates was left to stand as it was at room temperature for 90 minutes and the other plate was irradiated with UV light (254 nm, 860 μW/cm^2) for 90 minutes in a UV light irradiation box. […] Subsequently, nucleosides in the both were quantified by use of the UV light absorption analyzer connected to the HPLC and the electrochemical detector.\nSolutions of predetermined concentrations of vitamin C (VC), vitamin E (VE), catechin (Cate) and tannic acid (Tan) were prepared and 180 μl portions were injected into each well of two 99-well plastic plates. Then, 20 μl of 200 μg/ml dG (dissolved in ultrapure water) was added to each well and one of the plates was left to stand as it was at room temperature for 90 minutes and the other plate was irradiated with UV light (254 nm, 860 μW/cm^2) for 90 minutes in a UV light irradiation box.\nThen, 20 μl of 200 μg/ml dG (dissolved in ultrapure water) was added to each well and one of the plates was left to stand as it was at room temperature for 90 minutes and another plate was left to stand similarly at room temperature for 24 hours. The remaining three plates were irradiated with UV light (254 nm, 860 μW/cm^2) for 60 minutes, 90 minutes and 120 minutes, respectively, in a UV light irradiation box.\nSolutions of predetermined concentrations of glucose (Glu), raffinose (Raffi) and sucrose (Suc) were prepared and 180 μl portions thereof were injected into each well of four 99-well plastic plates. Then, 20 μl of 200 μg/ml dG (dissolved in ultrapure water) was added to each well and one of the plates was left to stand as it was at room temperature for 90 minutes. The remaining three plates were irradiated with UV light (254 nm, 860 μW/cm^2) for 60 minutes, 90 minutes and 120 minutes, respectively, in a UV light irradiation box.\nThen, 20 μl of 200 μg/ml dG (dissolved in ultrapure water) was added to each well and one of the plates was left to stand as it was at room temperature for 90 minutes and the other plate was irradiated with UV light (254 nm, 860 μW/cm^2) for 90 minutes in a UV light irradiation box.\nSolutions of various concentrations of uric acid (dissolving fluid: distilled water+0.025% FBS) were prepared and 180 μl portions thereof were injected into each well of two 99-well plastic plates. Then, 20 μl of 200 μg/ml dG (dissolved in ultrapure water) was added to each well and one of the plates was left to stand as it was at room temperature for 90 minutes and the other plate was irradiated with UV light (254 nm, 860 μW/cm^2) for 90 minutes in a UV light irradiation box."}, "[3]": {"conditions": "test substance 0.001%, additional solution ultrapure water"}, "[4]": {"conditions": "1 μg/ml, Table 5, ultrapure water 0.219"}, "[5]": {"conditions": "1 μg/ml, Table 5, ultrapure water 0.422"}, "[6]": {"conditions": "10 μg/ml, Table 5, ultrapure water 0.219"}, "[7]": {"conditions": "10 μg/ml, Table 5, ultrapure water 0.422"}, "[8]": {"conditions": "100 μg/ml, Table 5, ultrapure water 0.219"}, "[9]": {"conditions": "100 μg/ml, Table 5, ultrapure water 0.422"}, "[10]": {"conditions": "1 mg/ml, Table 5, ultrapure water 0.219"}, "[11]": {"conditions": "1 mg/ml, Table 5, ultrapure water 0.422"}},
  "data": [
    {"compound": "Cc1c(C)c2c(c(C)c1O)CC[C@@](C)(CCC[C@H](C)CCC[C@H](C)CCCC(C)C)O2", "note": "[VE, vitamin E]", "values": [
      {"measurement": "effect on 8OHdG with BPA and UV light irradiation", "setting": "2′-deoxyguanosine (dG) [1]; Example 9", "result": "significantly inhibit the increase in 8OHdG"},
      {"measurement": "8OHdG concentration, 90 Minutes' UV irradiation", "setting": "2′-deoxyguanosine (dG) [1]; test substance 0.00001%, additional solution BPA (50 ppm), BPA alone 11.58", "result": 15.43, "unit": "ng/mL"},
      {"measurement": "8OHdG concentration, 90 Minutes' UV irradiation", "setting": "2′-deoxyguanosine (dG) [1]; test substance 0.0001%, additional solution BPA (50 ppm), BPA alone 11.58", "result": 8.27, "unit": "ng/mL"},
      {"measurement": "8OHdG concentration, 90 Minutes' standing", "setting": "2′-deoxyguanosine (dG) [1]; test substance 0.001%, additional solution BPA (50 ppm), BPA alone 0.22", "result": 0.29, "unit": "ng/mL"},
      {"measurement": "8OHdG concentration, 90 Minutes' UV irradiation", "setting": "2′-deoxyguanosine (dG) [1]; test substance 0.001%, additional solution BPA (50 ppm), BPA alone 11.58", "result": 3.79, "unit": "ng/mL"},
      {"measurement": "8OHdG concentration, 90 Minutes' UV irradiation", "setting": "2′-deoxyguanosine (dG) [1]; [3]", "result": 0.28, "unit": "ng/mL"},
      {"measurement": "8OHdG concentration, 90 Minutes' standing", "setting": "2′-deoxyguanosine (dG) [1]; [3]", "result": 0.18, "unit": "ng/mL"},
      {"measurement": "8OHdG concentration, 90 Minutes' standing", "setting": "2′-deoxyguanosine (dG) [2]; 0.0005%, Table 2, distilled water 0.15", "result": 0.49, "unit": "ng/mL"},
      {"measurement": "8OHdG concentration, 90 Minutes' UV irradiation", "setting": "2′-deoxyguanosine (dG) [2]; 0.0005%, Table 2, distilled water 1.23", "result": 0.30, "unit": "ng/mL"},
      {"measurement": "8OHdG concentration, 90 Minutes' standing", "setting": "2′-deoxyguanosine (dG) [2]; 0.005%, Table 2, distilled water 0.15", "result": 0.45, "unit": "ng/mL"},
      {"measurement": "8OHdG concentration, 90 Minutes' UV irradiation", "setting": "2′-deoxyguanosine (dG) [2]; 0.005%, Table 2, distilled water 1.23", "result": 0.18, "unit": "ng/mL"},
      {"measurement": "8OHdG concentration, 90 Minutes' standing", "setting": "2′-deoxyguanosine (dG) [2]; 0.05%, Table 2, distilled water 0.15", "result": 0.44, "unit": "ng/mL"},
      {"measurement": "8OHdG concentration, 90 Minutes' UV irradiation", "setting": "2′-deoxyguanosine (dG) [2]; 0.05%, Table 2, distilled water 1.23", "result": 0.42, "unit": "ng/mL"},
      {"measurement": "evaluation in words: oxidation induction or antioxidant ability toward dG", "setting": "2′-deoxyguanosine (dG) [2]", "result": "very stable antioxidant"}
    ]},
    {"compound": "N=C(N)NCCC[C@H](N)C(=O)O", "note": "[Arg, 1-arginine]", "values": [
      {"measurement": "8OHdG concentration, 90 Minutes' standing", "setting": "2′-deoxyguanosine (dG) [2]; [4]", "result": 0.186, "unit": "ng/mL"},
      {"measurement": "8OHdG concentration, 90 Minutes' UV irradiation", "setting": "2′-deoxyguanosine (dG) [2]; [5]", "result": 0.323, "unit": "ng/mL"},
      {"measurement": "8OHdG concentration, 90 Minutes' standing", "setting": "2′-deoxyguanosine (dG) [2]; [6]", "result": 0.153, "unit": "ng/mL"},
      {"measurement": "8OHdG concentration, 90 Minutes' UV irradiation", "setting": "2′-deoxyguanosine (dG) [2]; [7]", "result": 0.253, "unit": "ng/mL"},
      {"measurement": "8OHdG concentration, 90 Minutes' standing", "setting": "2′-deoxyguanosine (dG) [2]; [8]", "result": 0.150, "unit": "ng/mL"},
      {"measurement": "8OHdG concentration, 90 Minutes' UV irradiation", "setting": "2′-deoxyguanosine (dG) [2]; [9]", "result": 0.305, "unit": "ng/mL"},
      {"measurement": "8OHdG concentration, 90 Minutes' standing", "setting": "2′-deoxyguanosine (dG) [2]; [10]", "result": 0.173, "unit": "ng/mL"},
      {"measurement": "8OHdG concentration, 90 Minutes' UV irradiation", "setting": "2′-deoxyguanosine (dG) [2]; [11]", "result": 0.299, "unit": "ng/mL"},
      {"measurement": "evaluation in words: oxidation induction or antioxidant ability toward dG", "setting": "2′-deoxyguanosine (dG) [2]", "result": "exhibited antioxidant ability"}
    ]},
    {"compound": "Oc1ccc(/C=C/c2cc(O)cc(O)c2)cc1", "note": "[RVT, Resveratol]", "values": [
      {"measurement": "8OHdG concentration, 90 Minutes' UV irradiation", "setting": "2′-deoxyguanosine (dG) [2]; 0.0005 ppm, Table 1, ultrapure water 0.529", "result": 1.026, "unit": "ng/mL"},
      {"measurement": "8OHdG concentration, 90 Minutes' UV irradiation", "setting": "2′-deoxyguanosine (dG) [2]; 0.005 ppm, Table 1, ultrapure water 0.529", "result": 0.690, "unit": "ng/mL"},
      {"measurement": "8OHdG concentration, 90 Minutes' UV irradiation", "setting": "2′-deoxyguanosine (dG) [2]; 0.05 ppm, Table 1, ultrapure water 0.529", "result": 0.571, "unit": "ng/mL"},
      {"measurement": "8OHdG concentration, 90 Minutes' UV irradiation", "setting": "2′-deoxyguanosine (dG) [2]; 0.5 ppm, Table 1, ultrapure water 0.529", "result": 1.378, "unit": "ng/mL"},
      {"measurement": "8OHdG concentration, 90 Minutes' UV irradiation", "setting": "2′-deoxyguanosine (dG) [2]; 5 ppm, Table 1, ultrapure water 0.529", "result": 5.582, "unit": "ng/mL"},
      {"measurement": "concentration at which oxidation injury activity due to UV light is elevated (harmfulness increased)", "setting": "2′-deoxyguanosine (dG) [2]; Example 1, 90 minutes UV", "result": "≥ 0.5", "unit": "ppm"}
    ]},
    {"compound": "NCCCNCCCCNCCCN", "note": "[Spe, spermine]", "values": [
      {"measurement": "8OHdG concentration, 90 Minutes' standing", "setting": "2′-deoxyguanosine (dG) [2]; [4]", "result": 0.140, "unit": "ng/mL"},
      {"measurement": "8OHdG concentration, 90 Minutes' UV irradiation", "setting": "2′-deoxyguanosine (dG) [2]; [5]", "result": 0.297, "unit": "ng/mL"},
      {"measurement": "8OHdG concentration, 90 Minutes' standing", "setting": "2′-deoxyguanosine (dG) [2]; [6]", "result": 0.150, "unit": "ng/mL"},
      {"measurement": "8OHdG concentration, 90 Minutes' UV irradiation", "setting": "2′-deoxyguanosine (dG) [2]; [7]", "result": 0.328, "unit": "ng/mL"},
      {"measurement": "8OHdG concentration, 90 Minutes' standing", "setting": "2′-deoxyguanosine (dG) [2]; [8]", "result": 0.154, "unit": "ng/mL"},
      {"measurement": "8OHdG concentration, 90 Minutes' UV irradiation", "setting": "2′-deoxyguanosine (dG) [2]; [9]", "result": 0.351, "unit": "ng/mL"},
      {"measurement": "8OHdG concentration, 90 Minutes' standing", "setting": "2′-deoxyguanosine (dG) [2]; [10]", "result": 0.179, "unit": "ng/mL"},
      {"measurement": "8OHdG concentration, 90 Minutes' UV irradiation", "setting": "2′-deoxyguanosine (dG) [2]; [11]", "result": 0.112, "unit": "ng/mL"},
      {"measurement": "evaluation in words: oxidation induction or antioxidant ability toward dG", "setting": "2′-deoxyguanosine (dG) [2]", "result": "exhibited antioxidant ability"}
    ]},
    {"compound": "catechin", "values": [
      {"measurement": "8OHdG concentration, 90 Minutes' standing", "setting": "2′-deoxyguanosine (dG) [2]; 1 μg/ml, Table 2, distilled water 0.15", "result": 9.07, "unit": "ng/mL"},
      {"measurement": "8OHdG concentration, 90 Minutes' standing", "setting": "2′-deoxyguanosine (dG) [2]; 10 μg/ml, Table 2, distilled water 0.15", "result": 133.71, "unit": "ng/mL"},
      {"measurement": "evaluation in words: oxidation induction or antioxidant ability toward dG", "setting": "2′-deoxyguanosine (dG) [2]", "result": "induces 8OHdG very strongly"}
    ]}
  ]
}
